# Measured values: patent publication US20080234233A1, “MEDICAMENT FOR TREATMENT OF NEURODEGENERATIVE DISEASES” (INSTITUTE OF MEDICINAL MOLECULAR DESIGN INC., priority 2002, published 2008)
# Tested on: NF-κ B activation
# Assay: Inhibitory activity of NF-κB activation, luciferase reporter assay under TNF-α stimulation in HepG2
# Assay type: cell-based, human
# Conditions: HepG2, TNF-α 40 ng/ml, 4 hours; for inhibition at 1 µg/mL / inhibition at 10 µg/mL: Homo sapiens, read-out: Inhibitory rate against NF-κB activation (%)
# Procedure, shortened: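 HepG2 cells transiently transfected with luciferase reporter carrying five tandem NF-κB binding sites, then stimulated with TNF-α (40 ng/ml) ± compound for 4 hours. Luminescent luciferase activity measured; inhibition expressed relative to activity without compound.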
Inhibitory rate against NF-κB activation (%) (Drug concentration at 1 μg/mL),Inhibitory rate against NF-κB activation (%) (Drug concentration at 10 μg/mL),SMILES,inhibition at 1 µg/mL (Drug concentration at 1 μg/mL),inhibition at 10 µg/mL (Drug concentration at 10 μg/mL)
11.2%,90.2%,CCN(CC)S(=O)(=O)c1ccc(OC)c(NC(=O)c2cc(Cl)ccc2O)c1 [compound 155],–,–
92.9%,95.5%,CC(=O)Oc1ccccc1C(=O)Nc1cc(Cl)cc(Cl)c1 [compound 121],–,–
–,–,"COc1ccc(C(C)(C)C)cc1NC(=O)c1cc(Cl)ccc1O [compound 135, 5-chloro-N-{5-[(1,1-dimethyl)ethyl]-2-methoxyphenyl}-2-hydroxybenzamide]",86.2%,99.2%
91.0%,95.6%,O=C(Nc1cc([N+](=O)[O-])cc([N+](=O)[O-])c1)c1cc(Br)ccc1O [compound 133],–,–
52.6%,98.8%,COc1ccc(C(=O)Nc2ccccc2)cc1NC(=O)c1cc(Cl)ccc1O [compound 157],–,–
91.0%,99.4%,COc1ccc(C(C)(C)C)cc1NC(=O)c1cc(Cl)ccc1OC(C)=O [compound 136],–,–
96.7%,97.4%,CC(=O)Oc1ccc(Cl)cc1C(=O)Nc1cc(C(F)(F)F)ccc1Cl [compound 89],–,–
–,–,"CC(C)(C)c1nc(NC(=O)c2cc(Br)ccc2O)sc1N1CCCCC1 [compound 204, 5-Bromo-N-{4-[(1,1-dimethyl)ethyl]-5-piperidinothiazol-2-yl}-2-hydroxybenzamide]",93.6%,97.8%
90.8%,94.7%,CC(=O)Oc1ccc(Cl)cc1C(=O)Nc1cc(C(C)(C)C)cc(C(C)(C)C)c1 [compound 139],–,–
–,–,"Cc1nc(-c2ccc(O)c(C(=O)Nc3cc(C(F)(F)F)cc(C(F)(F)F)c3)c2)cs1 [compound 30, N-[3,5-Bis(trifluoromethyl)phenyl]-2-hydroxy-5-(2-methylthiazol-4-yl)benzamide]",82.1%,95.3%
80.7%,94.2%,CCOC(=O)c1sc(NC(=O)c2cc(Br)ccc2O)nc1-c1ccccc1 [compound 218],–,–
–,–,"O=C(Nc1cc(C(F)(F)F)ccc1C(F)(F)F)c1cc(Cl)ccc1O [compound 81, N-[2,5-bis(trifluoromethyl)phenyl]-5-chloro-2-hydroxybenzamide]",95%,96.3%
53.3%,90.1%,C#Cc1ccc(O)c(C(=O)Nc2cc(C(F)(F)F)cc(C(F)(F)F)c2)c1 [compound 21],–,–
85.1%,89.4%,O=C(Nc1nc(C(F)(F)F)c(-c2ccccc2)s1)c1cc(Br)ccc1O [compound 213],–,–
20.0%,93.8%,CC(C)(C)c1nc(NC(=O)c2cc(Br)ccc2O)sc1C#N [compound 189],–,–
31.8%,90.3%,CCOC(=O)c1sc(NC(=O)c2cc(-c3ccc(F)cc3F)ccc2O)nc1-c1ccccc1 [compound 227],–,–
76.8%,96.0%,CC(O)c1ccc(O)c(C(=O)Nc2cc(C(F)(F)F)cc(C(F)(F)F)c2)c1 (centres unmarked) [compound 13],–,–

Inhibitory rate against NF-κB activation (%) (Drug concentration at 1 μg/mL),Inhibitory rate against NF-κB activation (%) (Drug concentration at 10 μg/mL),SMILES,inhibition at 1 µg/mL (Drug concentration at 1 μg/mL),inhibition at 10 µg/mL (Drug concentration at 10 μg/mL)
37.4%,87.1%,COc1ccc(C(C)(C)C)cc1NC(=O)c1cc(C)ccc1O [compound 149],–,–
–,–,"O=C(Nc1nc(-c2cc(F)ccc2F)cs1)c1cc(Cl)ccc1O [compound 263, 5-Chloro-2-hydroxy-N-[4-(2,5-difluorophenyl)thiazol-2-yl]benzamide]",> 99.9%,–
–,–,"CCOC(=O)c1sc(NC(=O)c2cc(Br)ccc2O)nc1-c1c(F)c(F)c(F)c(F)c1F [compound 219, Ethyl 2-(5-bromo-2-hydroxybenzoyl)amino-4-(pentafluorophenyl)thiazole-5-carboxylate]",82.2%,96%
–,–,"CC(C)(C)c1nc(NC(=O)c2cc(Br)ccc2O)sc1Br [compound 186, 5-Bromo-N-{5-bromo-4-[(1,1-dimethyl)ethyl]thiazol-2-yl}-2-hydroxybenzamide]",96.5%,98.7%
–,81.8%,O=C(Nc1nc(-c2ccccc2)c(-c2ccccc2)o1)c1cc(Br)ccc1O [compound 235],–,–
–,72.1%,O=C(O)Cc1sc(NC(=O)c2cc(Br)ccc2O)nc1-c1ccccc1 [compound 210],–,–
–,–,"CC(=O)c1sc(NC(=O)c2cc(Br)ccc2O)nc1-c1ccccc1 [compound 214, 5-Bromo-N-(5-acetyl-4-phenylthiazol-2-yl)-2-hydroxybenzamide]",70.2%,95.9%
–,–,"O=C(Nc1cc(C(F)(F)F)ccc1Cl)c1cc(Cl)ccc1O [compound 88, 5-chloro-N-[2-chloro-5-(trifluoromethyl)phenyl]-2-hydroxybenzamide]",94.8%,97.1%
–,78.8%,O=C(Nc1nc(-c2ccccc2)cs1)c1cc(Br)ccc1O [compound 208],–,–
–,–,"CCOC(=O)c1sc(NC(=O)c2cc(Br)ccc2O)nc1-c1ccccc1 [compound 216, 2-(5-bromo-2-hydroxybenzoyl)amino-4-phenylthiazole-5-carboxylic acid ethyl ester]",55.8%,82.8%
–,–,"O=C(Nc1nc(-c2c(F)c(F)c(F)c(F)c2F)cs1)c1cc(Cl)ccc1O [compound 266, 5-Chloro-2-hydroxy-N-[4-(2,3,4,5,6-pentafluorophenyl)thiazol-2-yl]benzamide]",> 99.9%,–
79.5%,97.8%,O=C(Nc1cc(C(F)(F)F)cc(C(F)(F)F)c1)c1cc(-c2cccs2)ccc1O [compound 28],–,–
–,–,"Cc1nc(NC(=O)c2cc(Br)ccc2O)sc1-c1ccc(F)cc1 [compound 193, 5-Bromo-N-[4-methyl-5-(4-fluorophenyl)thiazol-2-yl]-2-hydroxybenzamide]",–,82%
–,–,"O=C(Nc1nc(-c2ccco2)c(-c2ccco2)o1)c1cc(Br)ccc1O [compound 236, 5-Bromo-N-[4,5-bis(furan-2-yl)oxazol-2-yl]-2-hydroxybenzamide]",21.4%,56%
90.6%,98.1%,COc1ccc(Oc2ccccc2)cc1NC(=O)c1cc(Cl)ccc1O [compound 171],–,–
95.0%,97.7%,CC(=O)Oc1ccc(Cl)cc1C(=O)Nc1nc(C(C)(C)C)c(C(=O)C(C)(C)C)s1 [compound 200],–,–

SMILES,Inhibitory rate against NF-κB activation (%) (Drug concentration at 1 μg/mL),Inhibitory rate against NF-κB activation (%) (Drug concentration at 10 μg/mL),inhibition at 1 µg/mL (Drug concentration at 1 μg/mL),inhibition at 10 µg/mL (Drug concentration at 10 μg/mL)
O=C(Nc1cc(C(F)(F)F)ccc1Cl)c1cc(Cl)cnc1O [compound 119],85.4%,86.9%,–,–
"CCOC(=O)c1sc(NC(=O)c2cc(-c3ccc(C(F)(F)F)cc3)ccc2O)nc1-c1ccccc1 [compound 228, 2-{[4-Hydroxy-4′-(trifluoromethyl)biphenyl]-3-carbonyl}amino-4-phenylthiazole-5-carboxylic acid ethyl ester]",–,90.0%,–,–
Cc1cc(Oc2ccc(C(F)(F)F)cc2NC(=O)c2cc(Cl)ccc2O)cc(C)c1Cl [compound 115],90.7%,98.4%,–,–
COc1ccc(C(F)(F)F)cc1NC(=O)c1cc(Cl)ccc1O [compound 95],91.8%,98.5%,–,–
CC(C)(C)c1cc(C(=O)Nc2cc(C(F)(F)F)cc(C(F)(F)F)c2)c(O)c(C(C)(C)C)c1 [compound 62],37.0%,86.9%,–,–
COc1ccc(C(=O)Nc2cc(C(F)(F)F)cc(C(F)(F)F)c2)c(O)c1 [compound 65],83.3%,89.8%,–,–
CNC(=O)c1sc(NC(=O)c2cc(Br)ccc2O)nc1-c1ccccc1 [compound 220],50.8%,58.6%,–,–
O=C(Nc1cc(C(F)(F)F)cc(C(F)(F)F)c1)c1nc2ccccc2nc1O [compound 80],46.3%,73.0%,–,–
O=C(Nc1cc(C(F)(F)F)ccc1[N+](=O)[O-])c1cc(Cl)ccc1O [compound 91],86.3%,96.7%,–,–
O=C(Nc1cc(C(F)(F)F)ccc1N1CCCC1)c1cc(Br)ccc1O [compound 97],95.8%,97.8%,–,–
O=C(Nc1cc(C(F)(F)F)ccc1N1CCOCC1)c1cc(Cl)ccc1O [compound 106],92.3%,92.1%,–,–
Cc1ccc(C(=O)Nc2cc(C(F)(F)F)cc(C(F)(F)F)c2)c(O)c1 [compound 53],93.3%,94.5%,–,–
O=C(Nc1cc(C(F)(F)F)ccc1C(F)(F)F)c1cc(Br)ccc1O [compound 268],87.1%,98.4%,–,–
Cc1ccc(Oc2ccc(C(F)(F)F)cc2NC(=O)c2cc(Cl)ccc2O)cc1 [compound 117],92.8%,92.6%,–,–
O=C(Nc1cc(C(F)(F)F)cc(C(F)(F)F)c1)c1cc(-n2cccc2)ccc1O [compound 27],93.8%,97.9%,–,–
